Assays:
human = settings: ingestion; cited from earlier work
[1] = target: T1, ArsRFlagN protein (SEQ ID NO. 9) bound to Opars1 DNA fragment (Escherichia coli, UniProt P37309); experiment: ELISA arsenic assay: ArsRFlagN protein remaining bound to Opars1 DNA fragment on streptavidin microplate, luminescence (CDP*); assay type: binding, Escherichia coli K12 strain MG1655; settings: 60 min 25° C.
T1 construct: made in house; host or cells: Escherichia coli M15[pREP4] with plasmid pQEarsRFlagN (pQE70)
T1 sequence (P37309 with tags, fused parts or gaps): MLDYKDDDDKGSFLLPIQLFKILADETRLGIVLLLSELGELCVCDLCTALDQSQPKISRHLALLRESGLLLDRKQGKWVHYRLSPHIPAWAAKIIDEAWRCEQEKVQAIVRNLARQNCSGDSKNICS
Method: Different dilutions of arsenic solution to be assayed are added (4), the arsenic binds to the ArsR protein (5) that is separated from its site. These proteins are eliminated by washing. Only the ArsR proteins that have not bound arsenic remain attached to the DNA (6).
A specific antibody of the Flag sequence is added (7). That antibody binds the Flag sequence of the ArsR protein bound to the DNA. The antibody is coupled with an enzyme, alkaline phosphatase for example. Any antibodies not bound are eliminated by washing.
A substrate of the enzyme is added in the wells. Light is emitted when the substrate is cleaved by the enzyme (8). […] The quantity of arsenic contained in the sample is obtained by comparing the results with a standard curve.
In this example, the used DNA fragment containing the binding site of the ArsR protein is composed of 254 base pairs (SEQ ID NO. 1, called “Opars1” herein). Opars1 sequence has been obtained by PCR (DNA polymerase chain reaction) amplification using the primers Opars1L (SEQ ID NO. 2) and Opars1R (SEQ ID NO. 3). The chromosomal DNA of the Escherichia coli K12 bacteria strain MG1655 (ATCC 47076) was used as a template for the PCR amplification. Biotin was added on the nucleotide at position 5′ during synthesis of the Opars1L primer. Biotinylated Opars1 sequences, that is to say sequences with a biotin in position 5′, were thus obtained.
A “NUNC Immobilizer (trademark) Streptavidin” microplate (Nunc Streptavidin Microplate, Dominique Dutscher (ref. 056212), Brumath, France) with 96 wells with a useful volume of 100 μl each and whose surface is functionalized with streptavidin, was used. The wells of this microplate were washed three times using 300 μl of PBST solution.
A solution containing Opars1 DNA fragments was diluted in PBS solution to obtain a DNA concentration of 0.2 μM. 100 μl of that solution were placed in each well of the “NUNC Immobilizer (trademark) Streptavidin” microplate. The microplate was incubated for 60 minutes at 25° C., to enable binding of the DNA in the wells.
(§1) The unbound DNA was eliminated by three successive washes using 300 μl of PBST per well.
The ArsR protein of sequence SEQ ID NO. 4 corresponds to the protein that regulates the Ars operon of Escherichia coli K12 strain MG1655. The arsR gene of sequence SEQ ID NO. 5 coding that protein was amplified from the chromosomal DNA of that strain using the primers arsRR (SEQ ID NO. 6) and arsRL (SEQ ID NO. 7), and cloned in expression vector pQE70 (Qiagen) according to the protocol described in the document “The QiaExpressionist: A handbook for high-level expression and purification of 6×His-tagged proteins. June 2003. Fifth ed., Qiagen” [12]. A Flag sequence (SEQ ID NO. 10) was inserted in the N-terminal region of the ArsR protein and named “ArsRFlagN” (SEQ ID NO. 9). The Flag sequence is recognized by anti-Flag antibodies (Ref. A9469, Sigma Aldrich, Saint-Quentin Fallavier, France). This addition will allow detecting and assaying the ArsR protein more efficiently.
The 200 μg of ArsRFlagN proteins produced were diluted to 1/100 in PBST buffer. 100 μl of that solution were added in each of the assay wells. The microplate was incubated for 60 minutes at 25° C., to enable the attachment of the ArsRFlagN proteins on the DNA in the wells. The amount of ArsRFlagN proteins added per well was estimated at about 0.4 μg.
(§2) The unbound proteins were eliminated by three successive washes using 300 μl of PBST per well.
A DNA fragment containing the ArsR protein binding site was attached to a support in the same way as that set out in example 2 above.
A solution containing the ArsR protein was added according to the protocol presented in example 3 above, to enable the protein to bind with the DNA.
6 dilutions of arsenic solution, at 0.375 μg/L, 0.750 μg/L, 1.875 μg/L, 7.500 μg/L, 18.750 μg/L and 37.500 μg/L respectively, were prepared in PBS to provide a standard range. […]

[2] = target: T2, ArsRFlagN-6His protein (SEQ ID NO. 22) bound to Pars2Lbio/Pars2R DNA fragment (Escherichia coli, UniProt P37309); experiment: ELISA arsenic assay: ArsRFlagN-6His protein remaining bound to Pars2Lbio/Pars2R DNA fragment on streptavidin microplate, luminescence (CDP*); assay type: binding; settings: 60 min 25° C.
T2 construct: made in house; host or cells: Escherichia coli C43(DE3) pLysS, vector pET28b(+)
T2 sequence (P37309 with tags, fused parts or gaps): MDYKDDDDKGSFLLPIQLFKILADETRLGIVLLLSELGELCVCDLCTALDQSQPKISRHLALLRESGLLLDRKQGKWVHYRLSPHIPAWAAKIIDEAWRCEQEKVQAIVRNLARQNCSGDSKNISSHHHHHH
Method: In this example, the used DNA fragment containing the binding site of the ArsRFlagN-6His protein (SEQ ID NO. 22) is composed of a fragment of 41 biotinylated bases in position 5′ (SEQ ID NO. 25, named “Pars2Lbio”) hybridized to a further DNA fragment with 33 bases (SEQ ID NO 26, named “Pars2R”). The sequences Pars2Lbio and Pars2R were obtained by chemical synthesis (Eurofins MWG Operon, Ebersberg, Germany).
The biotinylated oligonucleotide (“Pars2Lbio”) was used at a concentration of 1 to 10 nM. The complementary oligonucleotide (“Pars2R”) was added in excess to enhance formation of the double strand. It was diluted in PBST buffer (between 1 and 10 nM, ideally 5, for the biotinylated oligonucleotide; between 4 and 40 nM, ideally 20, for the complementary oligonucleotide). The mixture was heated for one minute at 65° C. to eliminate any secondary structures that could have been formed by each oligonucleotide.
A “NUNC Immobilizer (trademark) Streptavidin” microplate (Nunc Streptavidin Microplate, Dominique Dutscher (ref. 056212), Brumath, France) with 96 wells with a useful volume of 100 μl each and whose surface is functionalized with streptavidin, was used. The wells in the microplate were washed three times using of 300 μl of PBST solution.
The DNA solution was then distributed in the microplate wells (100 μl per well). The microplate was placed at 25° C. for one hour to enable binding of the DNA fragments thanks to the biotin-streptavidin affinity.
as §1
100 μl of PBSTLE solution were added in the microplate wells. The microplate was incubated for 60 minutes at 25° C. to enable non-specific binding of the milk proteins on the bottom and the walls of the well. This step limits non-specific binding of the ArsRFlagN-6His protein (SEQ ID NO. 22) and the conjugated anti-Flag antibodies (Ref. A9469, Sigma Aldrich, Saint-Quentin Fallavier, France). The unbound proteins were eliminated by three successive washes of the well using 300 μl of PBST buffer.
A solution of ArsRFlagN-6His protein (SEQ ID NO. 22) at 1 μg/ml was prepared in PBST buffer. 100 μl of this solution were added in each of the assay wells. The microplate was incubated for 60 minutes at 25° C., to enable the ArsRFlagN-6His proteins to bind with the DNA in the wells.
as §2
The DNA fragment defined in example 6 and containing the ArsR protein binding site was bound to a support in the same way as presented in example 6 above.
A solution containing the ArsRFlagN-6His protein (SEQ ID NO. 22) was added according to the protocol presented in example 7 above, to enable the protein to bind with the DNA.
5 dilutions of arsenic solution, at 0 μg/L, 2 μg/L, 3 μg/L, 4 μg/L, and 5 μg/L respectively, were prepared in PBS to provide a control sample range. 100 μl of each of these dilutions were added respectively in a microplate well.
The microplate was incubated for 60 minutes at 25° C., to enable the arsenic to bind with the ArsRFlagN-6His proteins (SEQ ID NO. 22).
The unbound ArsRFlagN-6His proteins (SEQ ID NO. 22) were eliminated by three successive washed using 300 μl of PBST per well.
100 μl of a solution of anti-Flag antibody (Ref. A9469, Sigma Aldrich, Saint-Quentin Fallavier, France), conjugated with alkaline phosphatase, were added in each wells. The antibody was previously diluted in PBST in compliance with the supplier's recommendations (dilution factor 1/500). The microplate was incubated for 60 minutes at 25° C. to enable the antibody to bind with the ArsRFlagN-6His proteins.
The unbound anti-Flag antibodies were eliminated by three successive washes using 300 μl of PBST per well.
A CDP* solution at 0.25 mM was prepared in buffer 1. 100 μl of CDP* solution were placed in the different assay wells. The light emitted was immediately measured using a luminometer (LumiStar, BMG Lab Technologies).

[3] = Storage stability of purified ArsRFlagN-6His protein; assay type: physicochemical
Method: The ArsRFlagN-6His protein (SEQ ID NO. 22) was purified by affinity chromatography (IMAC). An Ni-NTA column was balanced with PBS buffer+10 mM of imidazole. The clear lysate was deposited on the column. The buffer was eluted by gravity. The column was firstly washed using PBS buffer+10 mM of imidazole (10 column volumes) and secondly using PBS buffer+20 mM of imidazole. The ArsR protein was eluted using an imidazole gradient in PBS buffer (PBS buffer with increasing concentrations of imidazole: 30 to 400 mM). The fractions collected were analysed (SDS-PAGE gel). Fractions that contained the greatest quantity of protein were stored at 4° C. (3 ml of PBS buffer, imidazole 300 mM, pH 7.5). ArsR protein concentration was of 1 mg/ml. The protein is stable for 15 days at 4° C. It can be stored for several weeks at lower temperatures (−20 and −80° C.) in the presence of a cryoprotector (glycerol at 50%, volume/volume).

[AsH3] [arsenic]
amount of arsenic ingested causing acute intoxication (human): 1 to 2 mg/kg/day

arsenite [AsIII]
Luminescence value (L) ([1]; AsIII 0.005 μM (0.375 μg/L)): 6,426
logL ([1]; AsIII 0.005 μM (0.375 μg/L)): 3.81
Luminescence value (L) ([1]; AsIII 0.01 μM (0.750 μg/L)): 5,808
logL ([1]; AsIII 0.01 μM (0.750 μg/L)): 3.76
Luminescence value (L) ([1]; AsIII 0.025 μM (1.875 μg/L)): 5,023
logL ([1]; AsIII 0.025 μM (1.875 μg/L)): 3.70
Luminescence value (L) ([1]; AsIII 0.100 μM (7.500 μg/L)): 4,422
logL ([1]; AsIII 0.100 μM (7.500 μg/L)): 3.65
Luminescence value (L) ([1]; AsIII 0.250 μM (18.750 μg/L)): 3,776
logL ([1]; AsIII 0.250 μM (18.750 μg/L)): 3.58
Luminescence value (L) ([1]; AsIII 0.500 μM (37.500 μg/L)): 2,831
logL ([1]; AsIII 0.500 μM (37.500 μg/L)): 3.45
Luminescence value (L) ([2]; AsIII 0.027 μM (2 μg/L)): 4,710
logL ([2]; AsIII 0.027 μM (2 μg/L)): 3.6730
Luminescence value (L) ([2]; AsIII 0.040 μM (3 μg/L)): 4,457
logL ([2]; AsIII 0.040 μM (3 μg/L)): 3.6490
Luminescence value (L) ([2]; AsIII 0.053 μM (4 μg/L)): 4,061
logL ([2]; AsIII 0.053 μM (4 μg/L)): 3.6086
Luminescence value (L) ([2]; AsIII 0.067 μM (5 μg/L)): 3,906
logL ([2]; AsIII 0.067 μM (5 μg/L)): 3.5917

B1: ArsRFlagN-6His protein: recombinant E. coli ArsR regulator protein with N-terminal Flag peptide and polyhistidine tail (protein)
chain: T2 sequence (P37309 with tags, fused parts or gaps)
modifications: ArsRFlagN-6His protein
notes: recombinant E. coli ArsR regulator protein with N-terminal Flag peptide and polyhistidine tail
time the protein is stable ([3]; 4° C., PBS buffer, imidazole 300 mM, pH 7.5, 1 mg/ml): 15 days
time the protein can be stored ([3]; −20 and −80° C., in the presence of glycerol at 50% (volume/volume)): several weeks

Source: patent US9040240B2, “Arsenic assay using ELISA” (UNIVERSITE DE LORRAINE, priority 2011, dated 2015)
